In patent US20190142810A1, “MITOCHONDRIAL INHIBITORS FOR THE TREATMENT OF PROLIFERATION DISORDERS” (Basilea Pharmaceutica International AG, priority 2016, published 2019):

Legend:
[1] = tested on: HeLa galactose cells; assay: Cell growth and proliferation assay of HeLa galactose cells (crystal violet); type: cell-based; settings: Homo sapiens, HeLa, 72 h, 72 hours incubation, crystal violet staining, absorbance at 590 nm
Method: The cervical tumor cell line HeLa (ATCC, CCL-2) was cultivated in DMEM medium (Invitrogen cat. no. 11971, 4.5 g/L high glucose) containing 10% fetal calf serum (Sigma cat. no. F9665) and 1% Penicillin/Streptomycin (Sigma cat. no. P0781) at 37° C. in 5% CO2. HeLa galactose cells (i.e. HeLa cells that grow in high concentrations of galactose) were generated from HeLa glucose cells (i.e. HeLa cells that grow in high concentrations of glucose) by gradually changing the amount of glucose in the media to zero glucose in the presence of galactose as a sugar source (50% galactose/50% glucose media for one week, then 75% galactose/25% glucose media for one week, to 100% galactose media in the third week). Galactose media (Invitrogen cat. no. 11966) was supplemented with 10 mM galactose (Sigma cat. no. G5388).
Cell Growth and Proliferation Assay of HeLa Galactose and Glucose Cells
HeLa galactose cells and HeLa glucose cells were seeded in 96 well plates (TPP, cat. no 92696) at 2000 and 1500 cells/well, respectively, in 100 μL of complete medium. After overnight incubation the cells were incubated for 72 hours in complete medium containing 0.001% DMSO or compounds (final concentration of DMSO 0.001%). After the medium was removed, cells were fixed and stained by adding 50 μL crystal violet staining (0.2% crystal violet (Sigma-Aldrich cat. no. C0775) in 50% methanol) per well. The plates were incubated for 1 hour at room temperature. Subsequently the stain was decanted and plates were washed 4 times with de-mineralized water. Plates were air-dried for 2 hours. The stain was dissolved by adding 100 μL buffer (0.1 M Tris pH 7.5, 0.2% SDS, 20% ethanol) per well and shaking the plates. Absorbance at 590 nm was measured using a SpectraMax® 250 plate reader (Molecular Devices). Antiproliferative/growth inhibition IC50s were calculated from concentration-response curves using GraphPad Prism software.

[2] = tested on: Oxygen consumption (mitochondrial function); assay: Oxygen consumption assay (MitoXpress probe); type: cell-based; settings: MitoXpress probe signal, kinetic analysis at 37° C. for 5 hours, compared to untreated cells
Text: Oxygen consumption is one of the most informative and direct measures of mitochondrial function and can be measured, for example, by using the MitoXpress® assay (Luxcel MX-2001, Luxcel Biosciences). The MitoXpress® probe is one of a family of phosphorescent oxygen sensitive probes. The assay exploits the ability of oxygen to quench the excited state of the MitoXpress® probe. As the test material respires (i.e. the cells), oxygen is depleted in the surrounding solution/environment, which increases the probe phosphorescence signal. Changes in oxygen consumption reflecting changes in mitochondrial activity are seen as changes in the MitoXpress® probe signal over time.
Cells were seeded in 96 well black plates with transparent bottoms (Greiner Bio-One cat. no. 655090) at a density of 50′000 cells/well in a final volume of 100 μL. After 24 hours the incubation media was removed and 150 μL of fresh media containing inhibitors at different concentrations was added to each well. Then, 10 μL of MitoXpress® and 150 μL mineral oil were added per well. Reading from the top of the plate, kinetic analysis was performed at 37° C. for 5 hours using a Synergy 4 plate reader (BioTek) and Time-resolved Fluoresence (TRF) wavelengths of 380/11 nm excitation and 650/20 nm emission or 665/40 emission (30 microsecond delay time, 100 microsecond integration time, gain or sensitivity settings set at either medium or high). IC50s were calculated as the concentration that inhibits 50% of the phosphorescent oxygen sensitive probe signal (MitoXpress®) as compared to untreated cells.

Nc1nsc(NC(=O)N2CCC(Cc3ccc(Cl)cc3F)CC2)n1 [Example 108, N-(3-amino-1,2,4-thiadiazol-5-yl)-4-[(4-chloro-2-fluoro-phenyl)methyl]piperidine-1-carboxamide]
IC50 [1]: 96 nM | IC50 ([2]; 5 h): 132 nM

Cc1nsc(NC(=O)N2CCC(=Cc3ccc(N(C)CCO)cc3F)CC2)n1 [Example 110]
IC50 [1]: 66 nM | IC50 ([2]; 5 h): 151 nM

Cc1nsc(NC(=O)N2CCC(C(=O)c3ccc(Br)cc3F)CC2)n1 [Example 141, 4-(4-bromo-2-fluoro-benzoyl)-N-(3-methyl-1,2,4-thiadiazol-5-yl)-piperidine-1-carboxamide]
IC50 [1]: 29 nM | IC50 ([2]; 5 h): 56 nM

Cc1nsc(NC(=O)N2CCC(=Cc3c(F)cc(C#N)cc3F)CC2)n1 [Example 95, 4-[(4-cyano-2,6-difluoro-phenyl)methylene]-N-(3-methyl-1,2,4-thiadiazol-5-yl)piperidine-1-carboxamide]
IC50 [1]: 20 nM | IC50 ([2]; 5 h): 30 nM

Cc1nsc(NC(=O)N2CCC(Cc3c(F)cc(C(F)(F)F)cc3F)CC2)n1 [Example 40, 4-[[2,6-difluoro-4-(trifluoromethyl)phenyl]methyl]-N-(3-methyl-1,2,4-thiadiazol-5-yl)piperidine-1-carboxamide]
IC50 [1]: 32 nM | IC50 ([2]; 5 h): 48 nM

Cc1cc(NC(=O)N2CCC(Cc3c(F)cc(C(F)(F)F)cc3F)CC2)ccn1 [Example 139]
IC50 [1]: 22 nM | IC50 ([2]; 5 h): 152 nM

Cc1nsc(NC(=O)N2CCC(=Cc3c(F)cc(N(C)C)cc3F)CC2)n1 [Example 112, 4-[[4-(dimethylamino)-2,6-difluoro-phenyl]methylene]-N-(3-methyl-1,2,4-thiadiazol-5-yl)piperidine-1-carboxamide]
IC50 [1]: 12 nM | IC50 ([2]; 5 h): 23 nM

Cc1nsc(NC(=O)N2CCC(Cc3c(F)cc(C#N)cc3F)CC2)n1 [Example 129, 4-[(4-cyano-2,6-difluoro-phenyl)methyl]-N-(3-methyl-1,2,4-thiadiazol-5-yl)piperidine-1-carboxamide]
IC50 [1]: 16 nM | IC50 ([2]; 5 h): 20 nM

COCc1ccc(CC2CCN(C(=O)Nc3nc(C)ns3)CC2)cc1 [Example 6]
IC50 [1]: 31 nM | IC50 ([2]; 5 h): 200 nM

O=C(Nc1ccncc1)N1CCC(=Cc2ccc(Cl)cc2F)CC1 [Example 94]
IC50 [1]: 97 nM | IC50 ([2]; 5 h): 159 nM

Cc1nsc(NC(=O)N2CCCC(Cc3c(F)cc(Cl)cc3F)CC2)n1 (stereo not shown) [Example 127, 4-[(4-chloro-2,6-difluoro-phenyl)methyl]-N-(3-methyl-1,2,4-thiadiazol-5-yl)azepane-1-carboxamide]
IC50 [1]: 15 nM | IC50 ([2]; 5 h): 35 nM

N#Cc1cc(F)c(C=C2CCN(C(=O)Nc3ccnc(C4CC4)c3)CC2)c(F)c1 [Example 182, 4-[(4-cyano-2,6-difluoro-phenyl)methylene]-N-(2-cyclopropyl-4-pyridyl)piperidine-1-carboxamide]
IC50 [1]: 13 nM | IC50 ([2]; 5 h): 108 nM

CCc1cc(NC(=O)N2CCC(=Cc3ccc(Cl)cc3F)CC2)ccn1 [Example 144, 4-[(4-chloro-2-fluoro-phenyl)methylene]-N-(2-ethyl-4-pyridyl)piperidine-1-carboxamide]
IC50 [1]: 8 nM | IC50 ([2]; 5 h): 53 nM

Cc1ccc(OC2CCN(C(=O)Nc3nc(C)ns3)CC2)cc1 [Example 18]
IC50 [1]: 637 nM | IC50 ([2]; 5 h): 515 nM

Cc1nsc(NC(=O)N2CCC(Oc3ccc(Cl)cc3Cl)CC2)n1 [Example 20]
IC50 [1]: 122 nM | IC50 ([2]; 5 h): 369 nM

Cc1nsc(NC(=O)N2CCC(C(=O)c3ccc(F)cc3F)CC2)n1 [Example 75, 4-(2,4-difluorobenzoyl)-N-(3-methyl-1,2,4-thiadiazol-5-yl)piperidine-1-carboxamide]
IC50 [1]: 54 nM | IC50 ([2]; 5 h): 59 nM

Cc1cc(NC(=O)N2CCC(C(=O)c3ccc(C(F)(F)F)cc3F)CC2)ccn1 [Example 143]
IC50 [1]: 43 nM | IC50 ([2]; 5 h): 103 nM

Cc1nsc(NC(=O)N2CCC(Cc3ccc(N)cc3)CC2)n1 [Example 4, 4-[(4-aminophenyl)methyl]-N-(3-methyl-1,2,4-thiadiazol-5-yl)piperidine-1-carboxamide]
IC50 [1]: 460 nM | IC50 ([2]; 5 h): 400 nM

Cc1nsc(NC(=O)N2CCC(=Cc3ccc(NCCN)cc3F)CC2)n1 [Example 101, 4-[[4-(2-aminoethylamino)-2-fluoro-phenyl]methylene]-N-(3-methyl-1,2,4-thiadiazol-5-yl)piperidine-1-carboxamide]
IC50 [1]: 251 nM | IC50 ([2]; 5 h): 412 nM

Cc1nsc(NC(=O)N2CCCC(=Cc3ccc(C#N)cc3F)CC2)n1 [Example 117]
IC50 [1]: 77 nM | IC50 ([2]; 5 h): 145 nM

COC1CN(Cc2ccc(Cl)cc2F)CCN(C(=O)Nc2nc(C)ns2)C1 (stereo not shown) [Example 160, 4-[(4-chloro-2-fluoro-phenyl)methyl]-6-methoxy-N-(3-methyl-1,2,4-thiadiazol-5-yl)-1,4-diazepane-1-carboxamide]
IC50 [1]: 21 nM | IC50 ([2]; 5 h): 65 nM

Cc1nsc(NC(=O)N2CCCC(Cc3ccc(C(F)(F)F)cc3F)CC2)n1 (stereo not shown) [Example 120, 4-[[2-fluoro-4-(trifluoromethyl)phenyl]methyl]-N-(3-methyl-1,2,4-thiadiazol-5-yl)azepane-1-carboxamide]
IC50 [1]: 32 nM | IC50 ([2]; 5 h): 54 nM

Cc1ccc(CC2CCN(C(=O)Nc3nc(C)ns3)CC2)nc1 [Example 15]
IC50 [1]: 267 nM | IC50 ([2]; 5 h): 412 nM

Cc1nsc(NC(=O)N2CCC(Cc3ccc(-c4noc(C)n4)cc3F)CC2)n1 [Example 35, 4-[[2-fluoro-4-(5-methyl-1,2,4-oxadiazol-3-yl)phenyl]methyl]-N-(3-methyl-1,2,4-thiadiazol-5-yl)piperidine-1-carboxamide]
IC50 [1]: 240 nM | IC50 ([2]; 5 h): 473 nM

Cc1nsc(NC(=O)N2CCC(=Cc3ccc(N(C)C)cc3F)CC2)n1 [Example 47, 4-[[4-(dimethylamino)-2-fluoro-phenyl]methylene]-N-(3-methyl-1,2,4-thiadiazol-5-yl)piperidine-1-carboxamide]
IC50 [1]: 25 nM | IC50 ([2]; 5 h): 67 nM

Cc1cc(NC(=O)N2CCC(Cc3c(F)cc(N(C)C)cc3F)CC2)sn1 [Example 151, 4-[[4-(dimethylamino)-2,6-difluoro-phenyl]methyl]-N-(3-methylisothiazol-5-yl)piperidine-1-carboxamide]
IC50 [1]: 20 nM | IC50 ([2]; 5 h): 42 nM

Cc1cc(NC(=O)N2CCC(=Cc3c(F)cc(Cl)cc3F)CC2)ccn1 [Example 137, 4-[(4-chloro-2,6-difluoro-phenyl)methylene]-N-(2-methyl-4-pyridyl)piperidine-1-carboxamide]
IC50 [1]: 17 nM | IC50 ([2]; 5 h): 42 nM

CCc1nsc(NC(=O)N2CCC(Cc3ccc(Cl)cc3F)CC2)n1 [Example 70, 4-[(4-chloro-2-fluoro-phenyl)methyl]-N-(3-ethyl-1,2,4-thiadiazol-5-yl)piperidine-1-carboxamide]
IC50 [1]: 30 nM | IC50 ([2]; 5 h): 65 nM

Cc1nsc(NC(=O)N2CCC(Cc3ccc(C(F)(F)F)cc3)CC2)n1 [Example 10]
IC50 [1]: 36 nM | IC50 ([2]; 5 h): 200 nM

N#CCCc1nsc(NC(=O)N2CCC(=Cc3ccc(Cl)cc3F)CC2)n1 [Example 80, 4-[(4-chloro-2-fluoro-phenyl)methylene]-N-[3-(2-cyanoethyl)-1,2,4-thiadiazol-5-yl]piperidine-1-carboxamide]
IC50 [1]: 134 nM | IC50 ([2]; 5 h): 108 nM

Cc1nsc(NC(=O)N2CCC(Cc3ccc(F)cc3)CC2)n1 [Example 1, 1-Piperidinecarboxamide, 4-[(4-fluorophenyl)methyl]-N-(3-methyl-1,2,4-thiadiazol-5-yl)-]
IC50 [1]: 161 nM | IC50 ([2]; 5 h): 193 nM

Cc1nsc(NC(=O)N2CCC(Cc3ccc(Cl)cc3F)C(C)C2)n1 (single isomer, unassigned) [Example 84a, 4-[(4-chloro-2-fluoro-phenyl)methyl]-3-methyl-N-(3-methyl-1,2,4-thiadiazol-5-yl)piperidine-1-carboxamide]
IC50 [1]: 47 nM | IC50 [2]: 57 nM
